Where two headings read alike, the source gives them in different places.
Tests used:
Fusarium avenaceum = assay: Threshold concentration test in case of Fusarium avenaceum (infested soil, garden peas); format: in vivo; details: for number of sound peas: 20 grains per dish, 18 days at 20-24° C.; for root evaluation (1-4): 18 days
Method: Threshold concentration test in case of Fusarium avenaceum
A 20% pulverulent active agent of the type further identified in the table below was mixed in uniform manner with a soil which had been heavily infested with Fusarium avenaceum. The thus treated soil was then placed into clay dishes of a capacity of 0.5 l of earth. Each dish was seeded without any intervening time with 20 grains of garden peas (Pisum sativum L. convar. medullare Alef.) of the type "Wunder von Kelvedon". After a cultivation time of 18 days at 20° to 24° C. in a hot house the number of sound peas was determined and a root evaluation was carried out. The active agents employed, the amounts and results appear from the following table.
(§1) The root evaluation was carried out on a scale from 1 to 4 as follows: […]

Tilletia caries = assay: Treatment of oat seeds infested with Tilletia caries (spore germination); format: in vivo
Helminthosporium gram = details: about 5 weeks
Method: Treatment of barley seeds infested with Helminthosporium gram
After emergence, the plants were subjected to illumination for 12 hours per day. After about 5 weeks the infested plants were counted and the total number of plants for each test were also counted. The active agents tested were used as pulverulent compositions.

Pythium ultimum = assay: Threshold concentration test for use of the compounds against Pythium ultimum (infested soil, garden peas); format: in vivo; parameters: key to root evaluation (1-4): 4: white roots without fungous necrosis; 3: white roots, minor fungous necrosis; 2: brown roots, already more pronounced fungous necrosis; 1: heavy fungous necrosis, roots rotted; details: for root evaluation (1-4): 3 weeks; for number of sound peas: 20 grains per dish, 3 weeks at 20-24° C.
Method: Threshold concentration test for use of the compounds against Pythium ultimum
A 20% concentration of certain pulverulent active agents as listed below were mixed in uniform manner into a soil which had been heavily infested by Pythium ultimum. The thus treated soil was then placed into clay dishes of a capacity of 0.5 l earth. Without any intermediate time lapse 20 grain of garden peas (Pisum sativum L. convar. medullare Alef.) of the type "Wunder von Kelvedon" were then seeded into each of the clay dishes. After a cultivation period of three weeks at 20° to 24° C. in a hothouse the number of sound peas was determined and a root evaluation was carried out. The active agents amounts and results appear from the following table.
as §1

Plasmopara viticola = assay: Prophylactic leaf treatment of grapevines in the hothouse against Plasmopara viticola; format: in vivo
Method: Effects of prophylactic leaf treatment of grapevines in the hothouse against Plasmopara viticola
Young grapevine plants having from 5 to 8 leaves were sprayed dripping wet with the concentrations of active agents stated in the table below. After drying of the spray deposit the leaves were sprayed with an aqueous suspension of sporangia of the fungus (about 20,000 per ml); the spraying was applied to the bottom side of the leaves. The plants were then immediately incubated in a hothouse at a temperature of 22° to 24° C. and at maximum water saturation in the atmosphere. Beginning with the second day the humidity of the air was reduced for 3 to 4 days to normal level (30 to 70% saturation) and was then maintained for another day on the level of full saturation. Subsequently, the percentage portion of the fungus infested surface of each leaf was noted and the average per treatment was calculated in order to determine the fungicidal activity. This was done on the basis of the following formula: [formula]
The active compounds were applied in the form of a 20% concentration spray powder.

[1] = concentration of active agent 0.005 (unit not given)
[2] = concentration of active agent 0.025 (unit not given)

| SMILES | number of sound peas (Fusarium avenaceum; 25 mg/l soil) | root evaluation (1-4) (Fusarium avenaceum; 25 mg/l soil) | number of sound peas (Fusarium avenaceum; 50 mg/l soil) | root evaluation (1-4) (Fusarium avenaceum; 50 mg/l soil) | number of sound peas (Fusarium avenaceum; 100 mg/l soil) | root evaluation (1-4) (Fusarium avenaceum; 100 mg/l soil) | % activity (Tilletia caries; 10 g active agent per 100 kg) [%] | % activity (Tilletia caries; 20 g active agent per 100 kg) [%] | % activity (Tilletia caries; 50 g active agent per 100 kg) [%] | % activity (Helminthosporium gram; 20 g active agent per 100 kg) [%] | % activity (Helminthosporium gram; 50 g active agent per 100 kg) [%] | root evaluation (1-4) (Pythium ultimum; 20 mg/l soil) | number of sound peas (Pythium ultimum; 20 mg/l soil) | root evaluation (1-4) (Pythium ultimum; 40 mg/l soil) | number of sound peas (Pythium ultimum; 40 mg/l soil) | root evaluation (1-4) (Pythium ultimum; 80 mg/l soil) | number of sound peas (Pythium ultimum; 80 mg/l soil) | % activity (Plasmopara viticola; [1]) [%] | % activity (Plasmopara viticola; [2]) [%] |
| --- | --- | --- | --- | --- | --- | --- | --- | --- | --- | --- | --- | --- | --- | --- | --- | --- | --- | --- | --- |
| CCCCNC(=O)c1nnc(S(=O)(=O)CCC)s1 [5-propylsulfonyl-1,3,4-thiadiazole-2-carboxylic acid-butylamide] | 9 | 1 | 16 | 3 | 17 | 4 | 99.2 | 99.7 | 100 |  |  |  |  |  |  |  |  |  |  |
| CCCCS(=O)(=O)c1nnc(C(=O)N2CCC2)s1 [5-butylsulfonyl-1,3,4-thiadiazole-2-carboxylic acid-N,N-trimethylenamide] | 5 | 1 | 13 | 2 | 18 | 3 |  |  | 100 |  |  |  |  |  |  |  |  |  |  |
| COCCNC(=O)c1nnc(S(C)(=O)=O)s1 [5-methylsulfonyl-1,3,4-thiadiazole-2-carboxylic acid-(2-methoxyethyl)-amide] |  |  |  |  |  |  |  | 93 | 100 | 92 | 100 |  |  |  |  |  |  |  |  |
| CC(C)[S+]([O-])c1nnc(C(N)=O)s1 (centres unmarked) [5-isopropylsulfinyl-1,3,4-thiadiazole-2-carboxamide] |  |  |  |  |  |  |  |  | 100 |  | 100 |  |  |  |  |  |  |  |  |
| CCCC[S+]([O-])c1nnc(C(=O)N(C)C)s1 (centres unmarked) [5-butylsulfinyl-1,3,4-thiadiazole-2-carboxylic acid-dimethylamide] |  |  |  |  |  |  |  |  |  |  | 100 |  |  |  |  |  |  |  |  |
| CCC[S+]([O-])c1nnc(C(=O)NC(C)C)s1 (centres unmarked) [5-propylsulfinyl-1,3,4-thiadiazole-2-carboxylic acid-isopropylamide] | 9 | 3 | 13 | 4 | 16 | 4 |  | 100 | 100 |  | 100 |  |  |  |  |  |  |  |  |
| CCCS(=O)(=O)c1nnc(C(=O)NCC)s1 [5-propylsulfonyl-1,3,4-thiadiazole-2-carboxylic acid-ethylamide] |  |  |  |  |  |  | 99.3 | 99.8 | 100 |  |  | 3 | 14 | 4 | 14 | 4 | 14 |  |  |
| CCCS(=O)(=O)c1nnc(C(=O)NCCCCl)s1 [5-propylsulfonyl-1,3,4-thiadiazole-2-carboxylic acid-(3-chloropropyl)-amide] |  |  |  |  |  |  |  |  |  |  |  | 1 | 10 | 3 | 19 | 4 | 19 |  |  |
| CCCC[S+]([O-])c1nnc(C#N)s1 (centres unmarked) [5-butylsulfinyl-1,3,4-thiadiazole-2-carbonitrile] | 19 | 4 | 19 | 4 | 19 | 4 |  |  | 100 |  |  | 4 | 18 | 4 | 18 | 4 | 20 |  |  |
| S=C([S-])NCCNC(=S)[S-].[Mn+2] [Manganese ethylene-1,2-bis-dithiocarbamate, reference compound] | 0 | 1 | 0 | 1 | 12 | 1 |  |  |  |  |  | 1 | 1 | 1 | 4 | 1 | 11 |  |  |
| CCS(=O)(=O)c1nnc(C(=O)N2CCC2)s1 [5-ethylsulfonyl-1,3,4-thiadiazole-2-carboxylic acid-N,N-trimethyleneamide] |  |  |  |  |  |  |  |  |  |  |  | 4 | 20 | 4 | 19 | 4 | 20 |  |  |
| CCCCS(=O)(=O)c1nnc(C(N)=O)s1 [5-butylsulfonyl-1,3,4-thiadiazole-2-carboxamide] | 15 | 2 | 12 | 3 | 16 | 4 |  |  |  |  |  | 1 | 11 | 4 | 20 | 4 | 18 | 73 | 90 |
| C=CCNC(=O)c1nnc([S+]([O-])CCC)s1 (centres unmarked) [5-propylsulfinyl-1,3,4-thiadiazole-2-carboxylic acid-allylamide] |  |  |  |  |  |  |  | 100 | 100 |  | 96 | 2 | 15 | 4 | 19 | 4 | 19 |  |  |
| C[S+]([O-])c1nnc(C#N)s1 (centres unmarked) [5-methylsulfinyl-1,3,4-thiadiazole-2-carbonitrile] | 20 | 4 | 18 | 4 | 19 | 4 |  | 100 | 100 |  | 94 | 4 | 19 | 4 | 20 | 4 | 20 |  |  |
| CS(=O)(=O)c1nnc(C(=O)N2CCC2)s1 [5-methylsulfonyl-1,3,4-thiadiazole-2-carboxylic acid-N,N-trimethylenamide] |  |  |  |  |  |  |  | 99 | 100 |  |  | 4 | 19 | 4 | 20 | 4 | 20 | 84 | 90 |
| C[S+]([O-])c1nnc(C(=O)NCc2ccccc2Cl)s1 (centres unmarked) [5-methylsulfinyl-1,3,4-thiadiazole-2-carboxylic acid-(2-chlorobenzyleamide)] | 7 | 2 | 11 | 3 | 18 | 4 |  |  |  |  |  |  |  |  |  |  |  |  |  |
| CC(C)[S+]([O-])c1nnc(C(=O)NCC2CCCCC2)s1 (centres unmarked) [5-isopropylsulfinyl-1,3,4-thiadiazole-2-carboxylic acid-cyclohexylmethylamide] |  |  |  |  |  |  |  | 99 | 100 |  |  |  |  |  |  |  |  |  |  |
| C[S+]([O-])c1nnc(C(N)=O)s1 (centres unmarked) [5-methylsulfinyl-1,3,4-thiadiazole-2-carboxamide] |  |  |  |  |  |  |  | 98 | 100 |  | 100 |  |  |  |  |  |  |  |  |
| CC(C)[S+]([O-])c1nnc(C#N)s1 (centres unmarked) [5-isopropylsulfinyl-1,3,4-thiadiazole-2-carbonitrile] | 18 | 4 | 19 | 4 | 18 | 4 |  | 87 | 100 |  | 93 | 3 | 17 | 4 | 17 | 4 | 19 |  |  |

From US4281121A, “1,3,4-Thiadiazole-2-carboxylic acid derivatives, process for making the same and fungicidal and nematocidal compositions containing same” (Schering Aktiengesellschaft, priority 1978, dated 1981)
